Where “and” joins values, the source holds several entries; their conditions need not be identical. Equal entries are not always repeated.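 48-hour exposure; five concentrations; linearly interpolated endpoints. Here, GI50 denotes the concentration required for 50% inhibition of growth.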 Calls of active or inactive are those of the source. Cut-off read from the data, not from the text of the source: active = GI50 up to about 1.1 µM and inactive = higher. Non-standard residues stand in square brackets, D forms with d. Residues, ends and D or L forms follow the SMILES beside them. *: point of attachment. NMeF = CN[CH](Cc1ccccc1)C(=O)O; NMeV = CN[CH](C(=O)O)C(C)C; Boc = CC(C)(C)OC(=O)*; OBn = c1ccc(CO*)cc1
Columns and labels:
Experiment in all cases: inhibition of tumour cell growth, NCI panel, 48 h
[1] = test system: HCT-15
[2] = test system: SW-620
[3] = test system: K562
[4] = test system: DU-145
[5] = test system: COLO 205
[6] = test system: RXF 393
[7] = test system: NCI-H460
[8] = test system: UACC-62
[9] = test system: BT-549
[10] = test system: EKVX
[11] = test system: SNB-75
[12] = test system: IGROV-1
[13] = test system: OVCAR-5
[14] = test system: TK-10
[15] = test system: 786-0
[16] = test system: UO-31
[17] = test system: SR
[18] = test system: HL-60
[19] = test system: OVCAR-8
[20] = test system: SF-268
[21] = test system: OVCAR-3
[22] = test system: HOP-92
[23] = test system: SNB-19
[24] = test system: SK-MEL-28
[25] = test system: HT-29
[26] = test system: CCRF-CEM
[27] = test system: SK-OV-3
[28] = test system: MDA-MB-435
[29] = test system: RPMI-8226
[30] = test system: SK-MEL-5
[31] = test system: M14
[32] = test system: SK-MEL-2
[33] = test system: HCC 2998
[34] = test system: SF-295
[35] = test system: NCI-H522
[36] = test system: A498
[37] = test system: NCI-H226
[38] = test system: A549
[39] = test system: UACC-257
[40] = test system: SN12C
[41] = test system: CAKI-1
[42] = test system: ACHN
[43] = test system: NCI/ADR-RES
[44] = test system: Hs-578T
[45] = test system: MOLT-4
[46] = test system: HOP-62
[47] = test system: KM12
[48] = test system: LOX IMVI
[49] = test system: T47D
[50] = test system: OVCAR-4
[51] = test system: MDA-N
[52] = test system: MCF7
[53] = test system: MDA-MB-231
[54] = test system: SF-539
[55] = test system: U-251
[56] = test system: PC-3
[57] = test system: NCI-H23
[58] = test system: Malme-3M
[59] = test system: HCT-116
[60] = test system: DMS-114
[61] = test system: DMS-273
[62] = test system: HOP-18
[63] = test system: M19-MEL

CC1OC(OC2C(OC(=O)[C@]34CCC(C)(C)C[C@H]3C3=CC[C@@H]5[C@@]6(C)CC[C@H](OC7OC(CO)C(O)C(O)C7OC7OC(CO)C(O)C(O)C7O)C(C)(C)[C@@H]6CC[C@@]5(C)[C@]3(C)CC4)OCC(O)C2O)C(O)C(OC2OCC(O)C(O)C2O)C1OC1OCC(O)C(OC2OCC(O)C(O)C2O)C1O (stereo partly drawn)
GI50 [1]: 22.7 µM
GI50 [2]: 15.7 µM (inactive)
GI50 [3]: 6.55 µM (inactive)
GI50 [4]: 10.5 µM (inactive)
GI50 [5]: 2.77 µM (inactive)
GI50 [6]: 16.4 µM (inactive)
GI50 [7]: 69 µM (inactive)
GI50 [8]: 13.5 µM (inactive)
GI50 [9]: 8.28 µM (inactive)
GI50 [10]: 4.34 µM (inactive)
GI50 [11]: 18.7 µM (inactive)
GI50 [12]: 19.1 µM (inactive)
GI50 [13]: 8.55 µM (inactive)
GI50 [14]: 13.4 µM (inactive)
GI50 [15]: 12.2 µM (inactive)
GI50 [16]: 2.14 µM (inactive)
GI50 [17]: 5.19 µM (inactive)
GI50 [18]: 3.94 µM (inactive)
GI50 [19]: 18 µM (inactive)
GI50 [20]: 9.51 µM (inactive)
GI50 [21]: 23.4 µM (inactive)
GI50 [22]: 6.84 µM (inactive)
GI50 [23]: 16.7 µM (inactive)
GI50 [24]: 2.37 µM (inactive)
GI50 [25]: 4.23 µM (inactive)
GI50 [26]: 22.3 µM (inactive)
GI50 [27]: 32.2 µM (inactive)
GI50 [28]: 2.26 µM (inactive)
GI50 [29]: 7.69 µM (inactive)
GI50 [30]: 9.4 µM (inactive)
GI50 [31]: 2.42 µM (inactive)
GI50 [32]: 8.57 µM (inactive)
GI50 [33]: 2.14 µM (inactive)
GI50 [34]: 7.62 µM (inactive)
GI50 [35]: 3.19 µM (inactive)
GI50 [36]: 2.24 µM (inactive)
GI50 [37]: 7.05 µM (inactive)
GI50 [38]: 3.7 µM (inactive)
GI50 [39]: 3.78 µM (inactive)
GI50 [40]: 2.26 µM (inactive)
GI50 [41]: 6.67 µM (inactive)
GI50 [42]: 9.4 µM (inactive)
GI50 [43]: 11 µM (inactive)
GI50 [44]: 21.4 µM (inactive)
GI50 [45]: 13.2 µM (inactive)
GI50 [46]: 14 µM (inactive)
GI50 [47]: 7.31 µM (inactive)
GI50 [48]: 16.2 µM (inactive)
GI50 [49]: 14.7 µM (inactive)
GI50 [50]: 10 µM (inactive)
GI50 [51]: 2.27 µM (inactive)
GI50 [52]: 7.71 µM (inactive)
GI50 [53]: 7.6 µM (inactive)
GI50 [54]: 67.8 µM (inactive)
GI50 [55]: 18.2 µM (inactive)
GI50 [56]: 11.8 µM (inactive)
GI50 [57]: 6.37 µM (inactive)
GI50 [58]: 4.46 µM (inactive)
GI50 [59]: 8.97 µM (inactive)

CC(C)C(NC(=O)OC(C)(C)C)C(=O)N(C)C(Cc1ccccc1)C(=O)N(C)C(C(=O)OCc1ccccc1)C(C)C (stereo not drawn) (Boc-Val-[NMeF]-[NMeV]-OBn; configuration not given here)
GI50 [60]: 29.4 µM (inactive) and 30.5 µM (inactive)
GI50 [1]: 67.1 µM and 79.3 µM
GI50 [2]: 75.2 µM (inactive)
GI50 [5]: 37.7 µM (inactive) and 44.2 µM (inactive)
GI50 [7]: 39 µM (inactive) and 41 µM (inactive)
GI50 [8]: 81.8 µM (inactive)
GI50 [10]: > 100 µM (inactive) and 62.1 µM (inactive)
GI50 [12]: 91.2 µM (inactive)
GI50 [14]: > 100 µM (inactive)
GI50 [15]: > 100 µM (inactive)
GI50 [16]: 85.3 µM (inactive) and 53.1 µM (inactive)
GI50 [17]: 27.9 µM (inactive) and 22.6 µM (inactive)
GI50 [18]: 33.4 µM (inactive) and 19.5 µM (inactive)
GI50 [19]: 74.6 µM (inactive) and 70.5 µM (inactive)
GI50 [20]: > 100 µM (inactive)
GI50 [24]: > 100 µM (inactive)
GI50 [27]: > 100 µM (inactive)
GI50 [30]: 15.4 µM (inactive)
GI50 [31]: 59.3 µM (inactive) and 94.4 µM (inactive)
GI50 [33]: > 100 µM (inactive)
GI50 [61]: 34.1 µM (inactive) and 33.8 µM (inactive)
GI50 [34]: 17.6 µM (inactive) and 34.6 µM (inactive)
GI50 [35]: 12.2 µM (inactive) and 22.8 µM (inactive)
GI50 [37]: > 100 µM (inactive) and 73.5 µM (inactive)
GI50 [38]: 39.5 µM (inactive) and 46.8 µM (inactive)
GI50 [46]: 85.9 µM (inactive)
GI50 [55]: 82.2 µM (inactive) and 43.8 µM (inactive)
GI50 [57]: 37.1 µM (inactive) and 68.5 µM (inactive)
GI50 [58]: > 100 µM (inactive)
GI50 [59]: 40 µM (inactive) and 28.4 µM (inactive)

O=C1C=C[C@@]23C[C@@H](NC4=C2C2=NCCc5c[nH]c(c52)C4=O)SC3=C1
GI50 [2]: 3.15 µM (inactive)
GI50 [3]: 4.74 µM (inactive)
GI50 [4]: 18.2 µM (inactive)
GI50 [11]: 19.8 µM (inactive)
GI50 [62]: 16.7 µM (inactive)
GI50 [63]: 2.03 µM (inactive)
GI50 [38]: 14.6 µM (inactive)
GI50 [52]: 3.82 µM (inactive)
GI50 [57]: 3.49 µM (inactive)

From ChEMBL document CHEMBL1201862, “PubChem BioAssay data set” (2004)
